Test results taken from PMC5794198, “Inhibitors of Trypanosoma cruzi Sir2 related protein 1 as potential drugs against Chagas disease” (PLoS Neglected Tropical Diseases, 2018).
“Also recorded” adds a separate entry of the source.

Legend:
T. cruzi amastigotes = experiment: High-content screening assay on intracellular T. cruzi amastigotes; assay type: cell-based, Trypanosoma cruzi; conditions: Trypanosoma cruzi, C2C12, 72 h, Y strain in C2C12 host cells, 72 h; read-out: Anti-T. cruzi Activity Amastigotes (EC50 ± SD)
Experimental: (§1) For the evaluation of the activity against T. cruzi amastigotes, high-content screening (HCS) was designed. In summary, 100 μL of host C2C12 cells (ATCC) were seeded in clear bottom black 96-well plates at a density of 2.5 x 10^4 cells/mL (2.5 × 10^3 cells/well). After 24 hrs, 50 μL of Y strain tissue culture-derived trypomastigotes were used to infect the host cells at a density of 7.5 x 10^5/mL (3.75 x 10^4 parasites/well). The parasites were allowed to infect for a 24 hr period, after which compounds were added in a volume of 50 μL. […] After 72 hrs of compound incubation, the wells were fixed with 4% paraformaldehyde for 15 to 30 mins. The plates were then washed once with deionized water and stained with a solution of DAPI (3 μM) for 1 hour. Plates were imaged in an INCell 2000 (GE Healthcare) high-content analyser by taking 16 pictures per well at 20 X objective amplification. Images were analysed with INCell Developer software (GE Healthcare) using the segmentation of host cell nuclei and parasite kinetoplast DNA. The measurement output used was the average number of parasites per cell calculated by the ratio of host cell nuclei/parasite kinetoplast DNA.
In this assay, the compounds are incubated for 72 hours with cells previously infected with wild-type trypomastigotes for 24 hours. The readout was done by comparing the average number of amastigotes per cell that developed by the end of the incubation period. The quality of the assay was statistically evaluated by the calculation of the z-factor [75], that represents the reliability of the assay in distinguishing positive controls confidently from negative controls. Varying from 0 to 1, z-factor values higher than 0.5 are considered acceptable for drug screening. The z-factor obtained was 0.68, validating the use of the assay (S3B Fig).

[1] = C2C12 host cell cytotoxicity (cell ratio) in HCS assay; assay type: cell-based, Mouse; conditions: mouse, cell ratio, 72 h; read-out: C2C12 Cytotoxicity (CC50 ± SD)
Experimental: as §1, with “After 24 hrs, 50 μL of Y strain tissue culture-derived trypomastigotes were used to infect the host cells at a density of 7.5 x 10^5/mL (3.75 x 10^4 parasites/well).” left out

C2C12 cells = experiment: as above; assay type: cell-based, Mouse; conditions: for Selectivity Index: CC50 cell line (C2C12)/EC50 T. cruzi
Experimental: as §1, with “After 24 hrs, 50 μL of Y strain tissue culture-derived trypomastigotes were used to infect the host cells at a density of 7.5 x 10^5/mL (3.75 x 10^4 parasites/well).” left out

T. cruzi Y strain (Luc+) = experiment: Mouse model of T. cruzi infection, bioluminescence imaging; assay type: in vivo, BALB/c mice; conditions: 100 mg/kg/day per os, 4 days
Experimental: To evaluate BNIPSpd (9) efficacy in vivo, five- to six-week-old female BALB/c mice (Charles River) and infected with T. cruzi trypomastigotes expressing luciferase. Parasites were collected from the supernatants of a monolayer of Vero infected cells, washed and suspended in PBS-glucose 0.2%, and injected intraperitoneally (1 x 10^4 per mouse). After 7 days of infection, mice were treated with drugs for 4 consecutive days orally with (benznidazole in 20% Kolliphor HS 15) or intravenously with (BNIPSpd (9) in 10% DMSO) at a dose of 100 or 5 mg/kg/day, respectively. Infection and treatment efficiency were evaluated following subcutaneous injection of 2.1 mg of luciferin and through live imaging using an IVIS Lumina LT (Perkin Elmer). Images of the animals were analysed using the Living Image software (Perkin Elmer).
Supplementary file pntd.0006180.s006.tif: S5 Fig In vivo efficacy testing of BNIPSpd (9). A) Mice were infected with 10^4 Luc^+ trypomastigotes by intraperitoneal injection. […] In the lower panel, bioluminescence signal of whole mice represented in average radiance (photons/sec/cm^2/sr) quantified before and after treatment. […] B) Snapshot Pharmacokinetics of BNIPSpd (9) in BALB/c mice by quantification of BNIPSpd (9) in the blood of mice by UHPLC-MS/MS ESI+ at different time-points after administration of a 5 mg/kg dose by intravenous injection. […]

[2] = test system: T. cruzi epimastigotes, wild-type (WT); experiment: T. cruzi epimastigote resazurin viability assay, wild-type; assay type: cell-based, Trypanosoma cruzi; conditions: CL-Brener, 64 h + 6 h resazurin; means ± SD (n = 4)
Experimental: T. cruzi epimastigotes were seeded at 1.25 x 10^6 cells/mL in a 96-well plate in the presence of varying concentrations of test compounds. Following a 64-hour incubation, 15 μL of a resazurin solution (Sigma-Aldrich; 1.1 mg/mL in PBS). […] Each assay was performed in at least triplicate in parallel to the known trypanocidal agent nifurtimox.

TcSir2rp1 = TcSir2rp1 (Trypanosoma cruzi, UniProt Q4DVL9); experiment: TcSir2rp1 NAD+-dependent deacetylase fluorimetric assay (CycLex kit); assay type: biochemical; conditions: for Inhibition of NAD+-dependent deacetylase activity of TcSir2rp1 / inhibition at 10 µM: single dose 10 μM, 200 μM NAD+, 10 μM peptide
TcSir2rp1, sequence (Q4DVL9 entry or part of it): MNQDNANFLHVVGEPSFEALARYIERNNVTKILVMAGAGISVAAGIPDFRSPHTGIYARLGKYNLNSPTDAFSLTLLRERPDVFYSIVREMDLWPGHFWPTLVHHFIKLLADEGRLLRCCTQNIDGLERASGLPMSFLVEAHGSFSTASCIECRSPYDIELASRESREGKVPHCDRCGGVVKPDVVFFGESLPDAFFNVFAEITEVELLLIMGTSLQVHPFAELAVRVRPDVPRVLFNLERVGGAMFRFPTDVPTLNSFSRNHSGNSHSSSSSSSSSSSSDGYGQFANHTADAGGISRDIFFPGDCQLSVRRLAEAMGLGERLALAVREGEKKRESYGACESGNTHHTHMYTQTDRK
Experimental: The deacetylase activity was measured using the commercial SIRT1/Sir2 Deacetylase Fluorometric Assay Kit (CycLex,Japan) according to the manufacturer’s recommendations. Briefly, fluorescence emission after digestion of deacetylated substrates by a lysine specific endopeptidase was measured in a fluorometric plate reader (Synergy HT, BioTek) with excitation and emission wavelengths set at 340 and 440 nm, respectively, every 30 seconds for 1 hour. The slope of the linear part of the reaction was calculated and used as readout of enzyme activity. […]
(§2) A variety of the bisnaphthalimidopropyl (BNIPs) derivatives, as well as the newly synthetized derivatives were evaluated as potential TcSir2rp1 inhibitors. The enzymatic reactions were performed using a commercially available CycLex SIRT1/Sir2 deacetylase fluorimetric kit (CycLex Co. Ltd., Nagano, Japan) in the absence and presence of the various inhibitors, 200 μM NAD^+ and 10 μM of peptide substrate as previously described.
as §2, with “µM” for “μM”

[3] = test system: T. cruzi epimastigotes overexpressing TcSir2rp1 (OE) with the pTcINDEX; experiment: microbe, parasite or virus in culture; assay type: cell-based; conditions: Trypanosoma cruzi, read-out: EC50 against T. cruzi epimastigotes OE
Experimental: For the generation of transgenic cell lines, 15 μg of the constructs were digested overnight (SpeI for the pTcINDEX construct; NotI for the knockout constructs), precipitated with sodium acetate / ethanol, and introduced into 1.5 x 10^7 epimastigote cells in the logarithmic phase of growth via transfection using an AMAXA Nucleofector II device (program V-33) with the Human T-cell nucleofector kit (Lonza). Parasites were suspended in fresh growth medium and incubated for 24-hrs to allow for the expression of drug selectable markers, prior to the addition of appropriate antibiotic (Blasticidin S (Thermo Fisher Scientific; 10 μg/mL); Hygromycin B (Formedium; 100 μg/mL); and Puromycin (Calbiochem; 5 μg/mL). Cells were then incubated for a further four- to six-weeks to allow for the selection of transgenic parasites and then genetically verified by PCR using ORF and drug selection primers.
The TcSir2rp1 open reading frame (TriTryp accession number TcCLB.508207.150) was amplified from CL-Brener genomic DNA using KOD polymerase (Novagen). The resulting PCR product encoding the full-length ORF was cloned directly into the T. cruzi expression vector, pTcINDEX [49], using NotI and BamHI restriction sites.
T. cruzi epimastigotes were seeded at 1.25 x 10^6 cells/mL in a 96-well plate in the presence of varying concentrations of test compounds. Following a 64-hour incubation, 15 μL of a resazurin solution (Sigma-Aldrich; 1.1 mg/mL in PBS). Following an additional 6-hr incubation, cell viability was determined by measuring the fluorescence of each culture with a BioTek FLX800 Fluorescence Microplate Reader (excitation and emission wavelengths of 540/535 nm and 590/610 nm, respectively) and associated Gen5 Reader Control 2.0 software. EC50 values were determined by nonlinear regression to a sigmoidal dose-response curve using GraFit software (Version 5.0, Erithacus Software). Each assay was performed in at least triplicate in parallel to the known trypanocidal agent nifurtimox.

Solubility = assay type: physicochemical; conditions: limits the concentration tested

SMILES	EC50 (T. cruzi amastigotes)	CC50 at 72 h [1]	Selectivity Index (C2C12 cells)	Reduction in the bioluminescence signal compared to vehicle (T. cruzi Y strain (Luc+))	Host cell toxicity in primary screening (C2C12 cells; single dose 2.5 μM)	EC50 against T. cruzi epimastigotes WT [2]	inhibition at 50 µM (TcSir2rp1; 50 μM)	Inhibition of NAD+-dependent deacetylase activity of TcSir2rp1 (TcSir2rp1)	inhibition at 10 µM (TcSir2rp1)	EC50 [3]	inhibition at 20 µM (TcSir2rp1)	Solubility in assay (qualitative) (Solubility)
O=C(Cn1ccnc1[N+](=O)[O-])NCc1ccccc1 [Benznidazole, benznidazole, reference compound]	1.23 ± 0.3 µM	> 100 µM	> 81.0	700 fold								
O=C1c2cccc3cccc(c23)C(=O)N1CCCNCCCCCNCCCN1C(=O)c2cccc3cccc(c23)C1=O [Compound 2]					high cytotoxicity	just as potent as nifurtimox	55 ± 4%	statistically significant inhibition	42 ± 13%	7.94 ± 0.78 µM		
O=C1c2cccc3cccc(c23)C(=O)N1CCCNCCCCCCNCCCN1C(=O)c2cccc3cccc(c23)C1=O [Compound 3]						moderate activity		statistically significant inhibition	31 ± 8%	102 ± 9.9 µM	34 ± 11%	low solubility; also recorded: poor solubility
O=C1c2cccc3cccc(c23)C(=O)N1CCCNCCCCCCCCCNCCCN1C(=O)c2cccc3cccc(c23)C1=O [Compound 6]	1.45 ± 0.37 µM	2.35 ± 0.77 µM	1.7			moderate activity				113 ± 8.2 µM		
O=C1c2cccc3cccc(c23)C(=O)N1CCCNCCCCCCCCCCNCCCN1C(=O)c2cccc3cccc(c23)C1=O [Compound 7]						just as potent as nifurtimox				2.97 ± 0.6 µM		
